SMILES	melting point [°C]
CCOC(=O)c1sc2sc(C(=O)OCC)c(N=C3SCCS3)c2c1N=C1SCCS1	198
O=CC(C=O)c1cnccn1	202 to 207
CCCCCC=CCC=CCC=CCC=CCCCC(=O)O	-49.5
Cc1ccccc1[N+](=O)[O-]	-4
CC(=O)Nc1ccc(-c2ccc(F)cc2)cc1	205 to 207
O=C(Oc1ccccc1)c1ccc2ccccc2c1O	93 to 97
COc1cc2c(c3oc(=O)c4c(c13)CCC4=O)C1CCOC1O2 (stereo not given)	288
CC12CCC(O)CC1CCC1C2CC(O)C2(C)C(C3=CC(=O)OC3)CCC12O (stereo not given)	222
Cc1cccnc1C(=O)O	119
CCCCCCCCC=CCCCCCCCC(=O)OCC(O)CO (stereo not given)	35
CC(CO)c1c(O)c(O)c2c(c1O)C(=O)C(O)=C1C(C)(C)CCCC12C (stereo not given)	237
O=C1C(Br)=C(c2ccccc2)c2ccccc21	111
c1ccc(-n2nc3ccccc3n2)cc1	107
CNC(C)=C(C(=O)OC)C(=O)c1cc(Cl)nc(Cl)c1	112 to 115
NNc1ncnc2sc3c(c12)CCCC3	178 to 179
CCCCOc1cc(C(=O)O)ccc1OC	142 to 144
CC(C)[C@H](NC(=O)OCC1c2ccccc2-c2ccccc21)C(=O)O	143 to 147
O=C(CC(=O)C(F)F)c1ccccc1	37 to 45
C(=C/c1ccc(/N=C/c2ccccc2)cc1)/c1ccc(/N=C/c2ccccc2)cc1	104
COc1ccc(CC2c3cc(OC)c(OC)cc3CCN2C)cc1OC (stereo not given)	89
N#Cc1cc2c(=O)oc3ccccc3c2nc1N	289
ON=C1CCCc2nnc3c(c21)CCCC3	269 to 271
O=S(=O)(O)CC(O)CNC(CO)(CO)CO (stereo not given)	220 to 221

SMILES	melting point [°C]
CC(=O)Nc1ccc([N+](=O)[O-])c(Br)c1	145
CCOC(=O)c1c(N=C=S)sc2c1CCCC2	45 to 46
CC(C)c1ccccc1Br	-59
Nc1ccc(Cl)c(C(=O)O)c1	188
NNc1cc(C(F)(F)F)ccc1Cl	64 to 68
c1ccc(CC2CCNCC2)cc1	16.8
Cc1nn(-c2ccccc2)c(C)c1C#N	85 to 86
O=c1n(CCCN2CCN(c3cccc(Cl)c3)CC2)nc2ccccn12	87
BrC1C2CC3CC(C2)CC1C3 (stereo not given)	139
Clc1ncnc2sc3c(c12)CCC3	108 to 110
CC(=O)SC1CC2=CC(=O)CC(SC(C)=O)C2(C)C2CCC3(C)C(CCC3(C)O)C12 (stereo not given)	206
CC(=O)Nc1ccccc1OC(F)(F)F	68 to 70
NC1CCCCCCCCCCC1	28 to 30
COC(=O)c1sccc1Oc1ccc(C(F)(F)F)cc1[N+](=O)[O-]	112 to 113
NS(=O)(=O)c1ccc(SCCCCO)c(F)c1	104
BrCc1cccc2nonc12	77 to 79
CCC1NC(=O)c2cc(S(N)(=O)=O)c(Cl)cc2N1 (stereo not given)	251
Oc1c2cccc1Cc1cccc(c1O)Cc1cccc(c1O)Cc1cccc(c1O)C2	317
CCOC(=O)C(OC(=O)c1ccccc1)c1cc(C(OC(=O)c2ccccc2)C(=O)OCC)c([N+](=O)[O-])cc1[N+](=O)[O-] (stereo not given)	133
CNCc1ccccc1Cn1cncn1	57 to 59
Nc1ncc2nc[nH]c2n1	280 to 284
CCNC(=S)NN	80 to 85
COc1ccc(C(=CC(=O)N2CCOCC2)c2ccc(Cl)cc2)cc1OC	148

SMILES	melting point [°C]
N#CCCP(CCC#N)CCC#N	98
CC(C)NCC(O)c1ccc(O)c(O)c1 (stereo not given)	170
CCCCC=CC(=O)O	-19
O=[N+]([O-])c1ccccc1/C=C/c1ccccn1	214
O=C(O)/C=C/c1c[nH]c2ccccc12	184 to 187
COc1cccc(C)c1C	29
CC(C)(C)OC(=O)N1CCC(Oc2ccc([N+](=O)[O-])cc2)CC1	99 to 101
C=C1CC(=O)O1	-6.5
O=C(O)C(Br)C(Br)c1cccc(C(Br)C(Br)C(=O)O)c1 (stereo not given)	225
COP(=O)(OC)OC=C(Cl)Cl	-60
Cc1ccc(S(=O)c2ccc(C)cc2)cc1	95
CCNC1=NC(=O)C(c2ccccc2)O1 (stereo not given)	148
O=C(c1ccc(Cl)cc1)c1noc(-c2ccc(Cl)cc2)c1S(=O)(=O)c1ccccc1	147
CC(C)(C)C(=O)Cl	-56
COc1cc(C(=O)NS(=O)(=O)c2ccccc2C)ccc1Cc1cn(C)c2ccc(NC(=O)OC3CCCC3)cc12	138
NC(=S)Nc1ccccc1[N+](=O)[O-]	136 to 137
Nc1nnc(-c2ccccc2)c(Nc2ccc(Cl)cc2Cl)n1	222 to 223
N#CCc1ccc(Cl)c(Cl)c1	40
O=S(=O)(Cl)c1cccc2cccnc12	129
Cc1cc(C)c(C2(C)CC(C(=NNC(N)=O)c3cc4cc(Br)ccc4o3)C2)c(C)c1 (stereo not given)	230 to 232
Clc1ccc2c(c1)Oc1c(Cl)c(Cl)c(Cl)c(Cl)c1O2	195
Cc1ccc(C(N)=NO)cc1	136 to 137
CC(=O)Oc1nc(CCc2ccccc2)nn1-c1ccccc1	109

SMILES	melting point [°C]
CC(O)C(Cl)(Cl)Cl (stereo not given)	50.5
O=C(c1noc(-c2ccc([N+](=O)[O-])cc2)c1S(=O)(=O)c1ccccc1)c1cccc2ccccc12	160
COc1ccnc(-c2cc(OC)ccn2)c1	169 to 174
FC(F)(F)C(F)(F)C(Cl)Cl	-94
CC(C)(C)N(CCO)CCO	42
CCCCCCCCCBr	-29
Cc1ccc(-c2nc3ccc(C)cn3c2CC(=O)N(C)C)cc1	196
N#Cc1ccccc1I	55
Cc1c(C(N)=O)[nH]c2ccccc12	170 to 172
C=CCNC(=O)C(C(F)(F)F)C(F)(F)F	117
COC(=O)Nc1nc2ccccc2[nH]1	305
Cc1cc(Cl)c([N+](=O)[O-])cc1[N+](=O)[O-]	90
CC(=O)OC1CCC2C3CCC4CC(=C(C)C)CCC4(C)C3CCC12C (stereo not given)	107 to 108
CNc1nnc(C(F)(F)F)s1	115 to 117
Clc1ccc2nonc2c1	37 to 40
Cc1cc2c(cc1S(N)(=O)=O)S(=O)(=O)CCC2	236
NS(=O)(=O)c1ccc(F)c(Cl)c1	109
CC(=O)c1ccc(-c2c(Cl)cc(Cl)cc2Cl)o1	108
CC12C=CC(=O)C=C1CCC1C2CCC2(C)C(O)CCC12 (stereo not given)	165
C=Cc1ccc(OCc2ccccc2)c(OC)c1	48 to 55
CN(C(=O)C(C(F)(F)F)C(F)(F)F)C1CCCCC1	169

— a melting point compilation (Tetko et al.)
